Active and inactive are the calls of the source. The calls are words filed in the database; no cut-off is given here.

In assay [1] the target is T1, Protein kinase C (PKC) (Homo sapiens) (UniProt O94806+P41743+P17252+P05129+Q05655+P05771+Q05513+Q02156+P24723+Q15139+Q04759). The assay is described as follows: Activation of PKC in human THP-1 cells assessed as increase in ERK phosphorylation at 100 nM incubated for 15 mins by immunoblotting analysis. Particulars: filed as activator. It is filed as cell-based. For orientation: Immunoblotting shows a protein as a band on a membrane.

The target of assay [2] is T1, Protein kinase C (PKC) (Homo sapiens). The assay is described as follows: Activation of PKC in human THP-1 cells assessed as increase in ERK phosphorylation incubated for 15 mins by immunoblotting analysis. Type of assay: cell-based. Particulars: filed as activator, dose 0.1-10 µM.
Assay [3] has the same target. The assay is described as follows: Activation of PKC in human THP-1 cells assessed as increase in ERK phosphorylation at 10 uM pretreated with PMA for 24 hrs followed by compound addition and measured after 15 mins by immunoblotting analysis. Type of assay: cell-based.
The subject of assay [4] is THP-1. The assay is described as follows: Induction of morphological changes in human THP-1 cells assessed as loss of cell circularity at 10 uM measured after 72 hrs by microscopic analysis. It is filed as functional, cell-based.
Assay [5] deals with THP-1. The assay is described as follows: Induction of monocytic differentiation in human THP-1 cells assessed as increase in cell size at 10 uM measured after 72 hrs by giemsa staining based microscopic analysis. It is filed as functional.
Assay [6] relates to THP-1. The assay is described as follows: Induction of monocytic differentiation in human THP-1 cells assessed as decrease in nuclear to cytoplasmic ratio at 10 uM measured after 72 hrs by giemsa staining based microscopic analysis. Type of assay: functional, cell-based.
In assay [7] the test system is THP-1. The assay can be described thus: Induction of monocytic differentiation in human THP-1 cells assessed as high vacuolated cytoplasm at 10 uM measured after 72 hrs by giemsa staining based microscopic analysis. It is filed as functional, cell-based.
A further assay relates to HL-60. The assay can be described thus: Activation of ERK in human HL-60 cells assessed as increase in cell differentiation. Type of assay: cell-based. The following applies: filed as activator.
For assay [8], the target named is T1, Protein kinase C (PKC) (Homo sapiens). The assay is described as follows: Activation of PKC in human THP-1 cells assessed as increase in ERK phosphorylation at 0.1 to 10 uM incubated for 15 mins by immunoblotting analysis. It is filed as cell-based. Particulars: dose 0.1-10 µM.
Assay [9] relates to THP-1. The assay is described as follows: Cytotoxicity against human THP-1 cells by trypan blue staining based microscopic analysis. It is filed as functional, cell-based.
In assay [10] the test system is THP-1. The assay can be described thus: Induction of cell differentiation in human THP-1 cells. Type of assay: functional, cell-based.

As for `CCCCCCCCCCCCCC(=O)O[C@@H]1[C@@H](C)[C@@]2(O)[C@@H](C=C(CO)C[C@]3(O)C(=O)C(C)=C[C@@H]23)[C@@H]2C(C)(C)[C@]12OC(C)=O`, the outcome in [1] was Active.
As to `CC(C)=CCC[C@]1(C)/C=C/[C@@H](OC(=O)C=C(C)C)[C@]2(C)O[C@@H]2CC/C(C=O)=C\C1`, in [2], the Activity entry was “Dose-Dependent Effect”. The result in assay [3] was inactive. The result in the assay on THP-1 [4], in the assay on THP-1 [5], in the assay with THP-1 [6], with THP-1 [7] and with HL-60 was Active.
Take `C=C1CC[C@H]2O[C@@]2(C)[C@H](OC(=O)C=C(C)C)/C=C/[C@@](C)(CCC=C(C)C)CC1=O`: the result (in assay [8]; in the assay on THP-1 [10]) was inactive. The outcome in the assay with THP-1 [9] was Active.
As to `C=C(I)CC[C@H]1O[C@@]1(C)[C@@H](/C=C/[C@](C)(CC=O)CCC=C(C)C)OC(=O)C=C(C)C`, the result in assay [8] was inactive.
Turning to `CC(C)=CCC[C@]1(C)/C=C/[C@@H](OC(=O)C=C(C)C)[C@]2(C)O[C@@H]2CC/C(CO)=C\C1`, in assay [2], the Activity entry was “Dose-Dependent Effect”. The result with THP-1 [5], in the assay with THP-1 [6], with THP-1 [7] and in the assay on HL-60 was Active.
As to `C=C1CC[C@H]2O[C@@]2(C)[C@H](OC(=O)C=C(C)C)/C=C/[C@@](C)(CCC=C(C)C)C[C@H]1O`, in assay [8], the result was inactive.
